The values that follow come from PMC10694292, “Increased sinusoidal export of drug glucuronides is a compensative mechanism in liver cirrhosis of mice” (Frontiers in Pharmacology, 2023).

In brackets after ≈: the same amount, converted by molar mass. Like-named read-outs stand apart in the source and are kept apart here.

The conditions of series [1]: cited from earlier work.
For series [2] the following is noted: ref Thiel et al., 2015, cited from earlier work.
For series [3] the following is noted: rats; ref Fukuda et al., 2008; cited from earlier work.
For series [4], the system named is OATP1B1. On the set-up: method as in Nakai et al., 2001. The settings on record: human, experimental; ref Nakai et al., 2001; cited from earlier work.
The conditions of series [5]: mouse, in vivo.
For series [6] the following is noted: rat, cited from earlier work.
The conditions of series [7]: humans; ref Everett et al., 1991; cited from earlier work.
The conditions of series [8]: cited from earlier work. The source holds these as a separate data set.
For series [9] the following is noted: DrugBank, human; ref Wishart et al., 2017; cited from earlier work.
A short description of series [10]: Drug cocktail i.v. in mice: 24 h urine, fraction of dose excreted. The settings on record: mice, after drug cocktail administration.
Series [11] in a line: Drug cocktail i.v. in CCl4-cirrhotic and control mice: plasma concentrations and AUC. Particulars: accompanying increased glucuronides.

In the case of `CC[C@H](C)C(=O)O[C@H]1C[C@H](O)C=C2C=C[C@H](C)[C@H](CC[C@@H](O)C[C@@H](O)CC(=O)O)[C@H]21` [Pravastatin, pravastatin], in series [1] (DrugBank, ref Wishart et al., 2017), the Solubility is 10000 µg/mL (≈ 23.6 mM). Moreover, the Lipophilicity in series [1] (MSDS, ref Wishart et al., 2017) is 0.59; in [1] (experimental pH=5, ref Serajuddin et al., 1991), 1.6; in series [1] (experimental pH=7, ref Serajuddin et al., 1991), -0.23; in series [1] (human, optimized, ref Lippert et al., 2012), 0.82. The “pKa (Acid)” value in series [1] (ref Wishart et al., 2017, Puttegowda et al., 2016) is reported as 4.2. Besides, the maximal velocity (Vmax) in series [2] (Oatp1b2, optimized for mice with measured human Km) was 2.5 µmol/L/min. For the same compound, the Fraction unbound in series [2] (mouse, optimized (talinolol: possibly optimized)) is on record as 0.73; in [6] (ref Fukuda et al., 2008) it was 0.672. In addition, the “Dose found in bile” value in series [3] is recorded as “about 60%”. Besides, the Km in series [4] is 11.5 µM. Moreover, in series [5], the “Mean fraction of dose excreted to urine” value is reported as “Less than 1%”. Besides, the “Fraction of dose in urine (24 h), cirrhotic vs control mice” value in series [5] (iv) is given as “increased significantly”. Further, in series [7], the “Dose recovered unchanged from urine” value is listed as “about 41%”.

As to `Cc1ncc2n1-c1ccc(Cl)cc1C(c1ccccc1F)=NC2` [Midazolam, midazolam], in series [1] (Ref pH: 6.5, ref Heikkinen et al., 2012), the Solubility is 50 µg/mL (≈ 0.153 mM). Besides, the Lipophilicity is 2.95 in series [1] (measurement, ref Poulin and Theil, 2002); 3.33 in [1] (optimized (mouse), ref Schenk et al., 2017); 3.13 in series [1] (optimized, ref Britz et al., 2019); 3.89 in series [1] (prediction, ref Wishart et al., 2017). Also, the pKa in [1] (midazolam: experimental, ref Poulin and Theil, 2002) is reported as 5.82; in [1] (prediction, ref Nguyen et al., 2016), 6.04; in series [1] (ref Schenk et al., 2017) it was 6.14. Moreover, the “pKa (Base)” value in [1] (ref Wishart et al., 2017) is 6.57. Also, the Fraction unbound in series [8] (measurement, mouse, ref Varkhede et al., 2018) is on record as 0.08; in series [8] (species not given, ref Maurer et al., 2005, Schenk et al., 2017), 0.046; in series [9] it was 0.03; in series [6] (ref Poulin and Theil, 2002), 0.027. Further, the “Mean fraction of dose excreted to urine” value in series [10] is “below 1%”. Besides, in [11], the “Measured plasma concentrations of parent compound in cirrhotic mice” value is “decreased”.

Broadly, the Solubility is the concentration that dissolves in the medium under given conditions. In general, Vmax refers to the top rate of the reaction or transport when substrate is in excess. Usually Km stands for the concentration of substrate that gives half-maximal velocity. What is called pKa is the pH at which an ionisable group is half protonated.
